Test results reported in the supplement of paper PMC10307832.

Legend:
Assay in all cases: relative viability (nuclei count vs DMSO), 5 days (fraction); higher = more cells survive
[1] = system: A-427
Outline: (§1)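 Medians of duplicate plates are given as relative viability. That measure is the nuclei count in treated wells divided by the count in vehicle wells. Counts were taken on 4× images of lung cancer cell lines in 1536-well plates, 5 days after pin-tool dosing the day after seeding with one drug alone or a fixed anchor-drug dose plus five library-drug doses (not always all listed) in √10 steps.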

[2] = system: NCI-H520
Outline: as §1

[3] = system: 201T
Outline: as §1

[4] = system: H3255
Outline: as §1

[5] = system: NCI-H596
Outline: as §1

[6] = system: ABC-1
Outline: as §1

[7] = system: BEN
Outline: as §1

[8] = system: NCI-H1651
Outline: as §1

[9] = system: NCI-H2023
Outline: as §1

[10] = system: LCLC-97TM1
Outline: as §1

[11] = system: NCI-H1650
Outline: as §1

[12] = system: LC-2-ad
Outline: as §1

## COc1cc(N2CCC(C(N)=O)CC2)ccc1Nc1nc(N)c(Cl)c(Nc2ccccc2S(=O)(=O)C(C)C)n1 [HG-5-88-01] + CCNC(=O)c1noc(-c2cc(C(C)C)c(O)cc2O)c1-c1ccc(CN2CCOCC2)cc1 [Luminespib] (partner 0.01 µM)
[1]; first compound 0.04 µM
  relative viability: 1.13
[1]; first compound 0.1265 µM
  relative viability: 0.916
[1]; first compound 0.4 µM
  relative viability: 0.901
[1]; first compound 1.265 µM
  relative viability: 0.769
[1]; first compound 4 µM
  relative viability: 0.754
[2]; first compound 0.04 µM
  relative viability: 0.186
[2]; first compound 0.1265 µM
  relative viability: 0.225
[2]; first compound 0.4 µM
  relative viability: 0.197
[2]; first compound 1.265 µM
  relative viability: 0.202
[2]; first compound 4 µM
  relative viability: 0.247
[3]; first compound 0.04 µM
  relative viability: 1.01
[3]; first compound 0.1265 µM
  relative viability: 1.04
[3]; first compound 0.4 µM
  relative viability: 1.08
[3]; first compound 1.265 µM
  relative viability: 1.03
[3]; first compound 4 µM
  relative viability: 1.11
[4]; first compound 0.04 µM
  relative viability: 0.752
[4]; first compound 0.1265 µM
  relative viability: 0.913
[4]; first compound 0.4 µM
  relative viability: 0.818
[4]; first compound 4 µM
  relative viability: 0.847
[5]; first compound 0.04 µM
  relative viability: 1.18
[5]; first compound 0.1265 µM
  relative viability: 1.09
[5]; first compound 0.4 µM
  relative viability: 1.07
[5]; first compound 1.265 µM
  relative viability: 1.17
[5]; first compound 4 µM
  relative viability: 1.22
[6]; first compound 0.04 µM
  relative viability: 0.406
[6]; first compound 0.1265 µM
  relative viability: 0.86
[6]; first compound 0.4 µM
  relative viability: 0.345
[6]; first compound 1.265 µM
  relative viability: 0.296
[6]; first compound 4 µM
  relative viability: 0.587
[7]; first compound 0.04 µM
  relative viability: 0.337
[7]; first compound 0.1265 µM
  relative viability: 0.412
[7]; first compound 0.4 µM
  relative viability: 0.43
[7]; first compound 1.265 µM
  relative viability: 0.465
[7]; first compound 4 µM
  relative viability: 0.234
[8]; first compound 0.04 µM
  relative viability: 0.87
[8]; first compound 0.1265 µM
  relative viability: 0.976
[8]; first compound 0.4 µM
  relative viability: 1.17
[8]; first compound 1.265 µM
  relative viability: 0.771
[8]; first compound 4 µM
  relative viability: 0.934
[9]; first compound 0.04 µM
  relative viability: 0.397
[9]; first compound 0.1265 µM
  relative viability: 0.673
[9]; first compound 0.4 µM
  relative viability: 0.671
[9]; first compound 1.265 µM
  relative viability: 0.438
[9]; first compound 4 µM
  relative viability: 0.267
[10]; first compound 0.04 µM
  relative viability: 0.864
[10]; first compound 0.1265 µM
  relative viability: 0.647
[10]; first compound 0.4 µM
  relative viability: 0.713
[10]; first compound 1.265 µM
  relative viability: 0.511
[10]; first compound 4 µM
  relative viability: 0.301
[11]; first compound 0.04 µM
  relative viability: 0.156
[11]; first compound 0.1265 µM
  relative viability: 0.184
[11]; first compound 0.4 µM
  relative viability: 0.172
[11]; first compound 1.265 µM
  relative viability: 0.197
[11]; first compound 4 µM
  relative viability: 0.204
[12]; first compound 0.04 µM
  relative viability: 1.05
[12]; first compound 0.1265 µM
  relative viability: 1.17
[12]; first compound 0.4 µM
  relative viability: 1.13
[12]; first compound 1.265 µM
  relative viability: 0.812
[12]; first compound 4 µM
  relative viability: 1.06
